# Assay results: article PMC9188586, “Design, synthesis and evaluation of novel tetrahydropyridothienopyrimidin-ureas as cytotoxic and anti-angiogenic agents” (Scientific Reports, 2022)
# Columns and labels:
# MCF-7 (breast cancer) = test: MTT antiproliferative assay, MCF-7; assay type: cell-based
# Protocol: (§1) Two series of new tetrahydropyridothienopyrimidines were evaluated for their cytotoxicity against a panel of cell lines, including MCF-7 (breast cancer), SW480 (colon cancer), PC-3 (prostate cancer), HEPG-2 (liver cancer) and HUVEC (human umbilical vein endothelial cell) using 3-(4,5-dimethyl- thiazol-2-yl)-2,5-diphenyltetrazolium bromide (MTT) assay. Sorafenib was used as a positive control. The cytotoxicity is expressed as the concentration that inhibits 50% of cell viability (IC50). […] The preliminary SAR is evaluated on the basis of cytotoxicity results of phenyl derivatives (11a–k) and pyridine derivatives (11l–11y).The mesomeric effect didn’t improve the cytotoxicity of compound 11d in the first series.
# (§2) Cytotoxicity of the compounds was measured by detecting the ability of cells in transforming MTT into a purple formazan dye. The different cell lines were provided by the National Cell Bank of Iran (Pastor Institute, Tehran, Iran). The required materials and reagents were purchased from Sigma. After the cell culture in RPMI-1640 medium and DMEM containing 10% FBS (Gibco, Milano, Italy), the suspension of MCF-7 (7000) and other cells (5000) were poured into 96 well plates and incubated in a humidified incubator containing 5% CO2 at 37 °C for 24 h. Subsequently, a solution of the compounds in DMSO was added to these plates and incubated for 48 h. After incubation, the solution of 5% 3-(4,5-Dimethyl-2-thiazolyl)-2,5-diphenyl-2H-tetrazolium bromide (MTT) was added to all the wells and incubation was continued for another 4 h. The record of color intensity of the formazan solution was at 570 nm by Bio-Rad microplate reader (Model 680) which reflects the cell growth condition.
# PC-3 (prostate cancer) = test: MTT antiproliferative assay, PC-3; assay type: cell-based; settings: 48 h incubation
# Protocol: as §1, §2
# SW480 (colon cancer) = test: MTT antiproliferative assay, SW480; assay type: cell-based
# Protocol: as §1, §2
# HEPG-2 (liver cancer) = test: MTT antiproliferative assay, HEPG-2; assay type: cell-based
# Protocol: as §1, §2
# [1] = test system: HUVEC (human umbilical vein endothelial cell); test: MTT antiproliferative assay, HUVEC; assay type: cell-based; settings: for IC50: MTT assay, 48 h incubation
# Protocol: as §1, §2
# [2] = Homo sapiens, MCF7, 48 h incubation
# [3] = Homo sapiens, SW480, 48 h incubation
# [4] = Homo sapiens, HepG2, 48 h incubation
SMILES,IC50 (MCF-7 (breast cancer); [2]),IC50 (PC-3 (prostate cancer)),IC50 (SW480 (colon cancer); [3]),IC50 (HEPG-2 (liver cancer); [4]),melting point,IC50 (MCF-7 (breast cancer); 48 h incubation),IC50 (SW480 (colon cancer); 48 h incubation),IC50 (HEPG-2 (liver cancer); 48 h incubation),"IC50 ([1]; Homo sapiens, HUVEC)",increase of cytotoxicity against HUVEC on moving chlorine to para position ([1]; 11t vs 11u),IC50 [1]
"COc1cccc(NC(=O)Nc2nnc(Sc3ncnc4sc5c(c34)CCN(Cc3ccncc3)C5)s2)c1 [Compound 11o, 1-(3-methoxyphenyl)-3-(5-((7-(pyridin-4-ylmethyl)-5,6,7,8-tetrahydropyrido[4',3':4,5]thieno[2,3-d]pyrimidin-4-yl)thio)-1,3,4-thiadiazol-2-yl)urea]",14.63 ± 0.07 µM,33.6 ± 1.41 µM,65.8 ± 0.28 µM,69.32 ± 0.52 µM,191 to 193 °C,,,,20.6 ± 0.5 µM,,
"O=C(Nc1cccc(F)c1)Nc1nnc(Sc2ncnc3sc4c(c23)CCN(Cc2ccccc2)C4)s1 [Compound 11e, 1-(5-((7-benzyl-5,6,7,8-tetrahydropyrido[4',3':4,5]thieno[2,3-d]pyrimidin-4-yl)thio)-1,3,4-thiadiazol-2-yl)-3-(3-fluorophenyl)urea]",13 ± 0.18 µM,42.8 ± 1.82 µM,65.6 ± 1.74 µM,9.84 ± 0.06 µM,144 to 146 °C,,,,27.48 ± 0.07 µM,,
"O=C(Nc1cccc(C(F)(F)F)c1)Nc1nnc(Sc2ncnc3sc4c(c23)CCN(Cc2ccccc2)C4)s1 [Compound 11j, 1-(5-((7-benzyl-5,6,7,8-tetrahydropyrido[4',3':4,5]thieno[2,3-d]pyrimidin-4-yl)thio)-1,3,4-thiadiazol-2-yl)-3-(3-(trifluoromethyl)phenyl)urea]",68.94 ± 0.63 µM,73.8 ± 2.92 µM,46.8 ± 1.13 µM,63 ± 0.64 µM,181 to 183 °C,,,,67.1 ± 1.85 µM,,
"Cc1ccc(NC(=O)Nc2nnc(Sc3ncnc4sc5c(c34)CCN(Cc3ccccc3)C5)s2)cc1 [Compound 11c, 1-(5-((7-benzyl-5,6,7,8-tetrahydropyrido[4',3':4,5]thieno[2,3-d]pyrimidin-4-yl)thio)-1,3,4-thiadiazol-2-yl)-3-(p-tolyl)urea]",42.87 ± 0.32 µM,32.21 ± 0.3 µM,70.2 ± 2.71 µM,24.6 ± 0.39 µM,,,,,26.12 ± 0.15 µM,,
"O=C(Nc1ccccc1)Nc1nnc(Sc2ncnc3sc4c(c23)CCN(Cc2ccccc2)C4)s1 [Compound 11a, 1-(5-((7-benzyl-5,6,7,8-tetrahydropyrido[4',3':4,5]thieno[2,3-d]pyrimidin-4-yl)thio)-1,3,4-thiadiazol-2-yl)-3-phenylurea]",23.34 ± 0.18 µM,34.4 ± 1.64 µM,24.5 ± 0.72 µM,7.34 ± 0.01 µM,230 to 232 °C,,,,19.06 ± 0.12 µM,,
"O=C(Nc1ccc(Cl)c(C(F)(F)F)c1)Nc1nnc(Sc2ncnc3sc4c(c23)CCN(Cc2ccccc2)C4)s1 [Compound 11k, 1-(5-((7-benzyl-5,6,7,8-tetrahydropyrido[4',3':4,5]thieno[2,3-d]pyrimidin-4-yl)thio)-1,3,4-thiadiazol-2-yl)-3-(4-chloro-3-(trifluoromethyl)phenyl)urea]",24.66 ± 0.24 µM,23.15 ± 0.21 µM,63.5 ± 1.37 µM,28.46 ± 0.25 µM,,,,,37.56 ± 0.31 µM,,
"O=C(Nc1ccc(Cl)cc1)Nc1nnc(Sc2ncnc3sc4c(c23)CCN(Cc2ccccc2)C4)s1 [Compound 11g, 1-(5-((7-benzyl-5,6,7,8-tetrahydropyrido[4',3':4,5]thieno[2,3-d]pyrimidin-4-yl)thio)-1,3,4-thiadiazol-2-yl)-3-(4-chlorophenyl)urea]",62.4 ± 2.94 µM,41.6 ± 1.1 µM,56.5 ± 1.28 µM,46.96 ± 0.35 µM,,,,,27.29 ± 0.19 µM,,
"O=C(Nc1cccc(F)c1)Nc1nnc(Sc2ncnc3sc4c(c23)CCN(Cc2ccncc2)C4)s1 [Compound 11q, 1-(3-fluorophenyl)-3-(5-((7-(pyridin-4-ylmethyl)-5,6,7,8-tetrahydropyrido[4',3':4,5]thieno[2,3-d]pyrimidin-4-yl)thio)-1,3,4-thiadiazol-2-yl)urea]",9.17 ± 0.04 µM,4.5 ± 0.03 µM,21.8 ± 0.72 µM,74.3 ± 2.12 µM,243 to 246 °C,,,,10.13 ± 0.05 µM,,
"Cc1ccc(NC(=O)Nc2nnc(Sc3ncnc4sc5c(c34)CCN(Cc3ccccc3)C5)s2)cc1Cl [Compound 11i, 1-(5-((7-benzyl-5,6,7,8-tetrahydropyrido[4',3':4,5]thieno[2,3-d]pyrimidin-4-yl)thio)-1,3,4-thiadiazol-2-yl)-3-(3-chloro-4-methylphenyl)urea]",50.8 ± 0.54 µM,41.8 ± 1.22 µM,69.6 ± 1.88 µM,3.33 ± 0.07 µM,,,,,24.63 ± 0.22 µM,,
"COc1ccc(NC(=O)Nc2nnc(Sc3ncnc4sc5c(c34)CCN(Cc3ccncc3)C5)s2)cc1 [Compound 11p, (4-Methoxyphenyl)-3-(5-((7-(pyridin-4-ylmethyl)-5,6,7,8-tetrahydropyrido[4',3':4,5]thieno[2,3-d]pyrimidin-4-yl)thio)-1,3,4-thiadiazol-2-yl)urea]",,43.5 ± 1.62 µM,,,,3.72 ± 0.55 µM,29.4 ± 1.01 µM,67.4 ± 0.33 µM,,,2.86 ± 0.05 µM

# Second part, led by results:
IC50 (MCF-7 (breast cancer); [2]),IC50 (PC-3 (prostate cancer)),IC50 (SW480 (colon cancer); [3]),IC50 (HEPG-2 (liver cancer); [4]),melting point,IC50 (MCF-7 (breast cancer); 48 h incubation),IC50 (SW480 (colon cancer); 48 h incubation),IC50 (HEPG-2 (liver cancer); 48 h incubation),SMILES,"IC50 ([1]; Homo sapiens, HUVEC)",increase of cytotoxicity against HUVEC on moving chlorine to para position ([1]; 11t vs 11u),IC50 [1]
4.69 ± 0.09 µM,8.94 ± 0.03 µM,30.5 ± 0.12 µM,26.26 ± 0.24 µM,229 to 231 °C,,,,"O=C(Nc1nnc(Sc2ncnc3sc4c(c23)CCN(Cc2ccncc2)C4)s1)Nc1ccccc1Cl [Compound 11s, 1-(2-chlorophenyl)-3-(5-((7-(pyridin-4-ylmethyl)-5,6,7,8-tetrahydropyrido[4',3':4,5]thieno[2,3-d]pyrimidin-4-yl)thio)-1,3,4-thiadiazol-2-yl)urea]",6.87 ± 0.03 µM,,
9.36 ± 0.06 µM,32.9 ± 0.61 µM,60.55 ± 0.41 µM,44.6 ± 0.52 µM,241 to 243 °C,,,,"O=C(Nc1cccc(C(F)(F)F)c1)Nc1nnc(Sc2ncnc3sc4c(c23)CCN(Cc2ccncc2)C4)s1 [Compound 11x, 1-(5-((7-(pyridin-4-ylmethyl)-5,6,7,8-tetrahydropyrido[4',3':4,5]thieno[2,3-d]pyrimidin-4-yl)thio)-1,3,4-thiadiazol-2-yl)-3-(3-(trifluoromethyl)phenyl)urea]",9.15 ± 0.02 µM,,
5.69 ± 0.03 µM,18.98 ± 0.11 µM,66.3 ± 1.24 µM,67.5 ± 1.38 µM,,,,,"O=C(Nc1ccc(F)cc1)Nc1nnc(Sc2ncnc3sc4c(c23)CCN(Cc2ccncc2)C4)s1 [Compound 11r, 1-(4-fluorophenyl)-3-(5-((7-(pyridin-4-ylmethyl)-5,6,7,8-tetrahydropyrido[4',3':4,5]thieno[2,3-d]pyrimidin-4-yl)thio)-1,3,4-thiadiazol-2-yl)urea]",48.2 ± 0.62 µM,,
12.68 ± 0.05 µM,3.02 ± 1.12 µM,14.6 ± 0.32 µM,85 ± 3.4 µM,,,,,"O=C(Nc1cccc(Cl)c1)Nc1nnc(Sc2ncnc3sc4c(c23)CCN(Cc2ccncc2)C4)s1 [Compound 11t, 1-(3-chlorophenyl)-3-(5-((7-(pyridin-4-ylmethyl)-5,6,7,8-tetrahydropyrido[4',3':4,5]thieno[2,3-d]pyrimidin-4-yl)thio)-1,3,4-thiadiazol-2-yl)urea]",67 ± 2.02 µM,,
6.8 ± 0.05 µM,9.42 ± 0.63 µM,71.9 ± 1.1 µM,38.5 ± 0.42 µM,157 to 159 °C,,,,"Cc1ccc(NC(=O)Nc2nnc(Sc3ncnc4sc5c(c34)CCN(Cc3ccncc3)C5)s2)cc1Cl [Compound 11w, 1-(3-chloro-4-methylphenyl)-3-(5-((7-(pyridin-4-ylmethyl)-5,6,7,8-tetrahydropyrido[4',3':4,5]thieno[2,3-d]pyrimidin-4-yl)thio)-1,3,4-thiadiazol-2-yl)urea]",6.23 ± 0.03 µM,,
20.48 ± 0.11 µM,4.37 ± 0.06 µM,45.69 ± 0.06 µM,71.6 ± 3.24 µM,257 to 260 °C,,,,"O=C(Nc1ccc(Cl)c(C(F)(F)F)c1)Nc1nnc(Sc2ncnc3sc4c(c23)CCN(Cc2ccncc2)C4)s1 [Compound 11y, 1-(4-chloro-3-(trifluoromethyl)phenyl)-3-(5-((7-(pyridin-4-ylmethyl)-5,6,7,8-tetrahydropyrido[4',3':4,5]thieno[2,3-d]pyrimidin-4-yl)thio)-1,3,4-thiadiazol-2-yl)urea]",57.1 ± 0.61 µM,,
10.37 ± 0.03 µM,55.3 ± 1.82 µM,67.7 ± 1.55 µM,26.4 ± 0.9 µM,,,,,"O=C(Nc1ccc(Cl)c(Cl)c1)Nc1nnc(Sc2ncnc3sc4c(c23)CCN(Cc2ccncc2)C4)s1 [Compound 11v, 1-(3,4-dichlorophenyl)-3-(5-((7-(pyridin-4-ylmethyl)-5,6,7,8-tetrahydropyrido[4',3':4,5]thieno[2,3-d]pyrimidin-4-yl)thio)-1,3,4-thiadiazol-2-yl)urea]",68.4 ± 1.44 µM,,
8.1 ± 0.02 µM,4.96 ± 0.18 µM,60.7 ± 1.13 µM,27.8 ± 1.84 µM,188 to 190 °C,,,,"O=C(Nc1ccc(Cl)cc1)Nc1nnc(Sc2ncnc3sc4c(c23)CCN(Cc2ccncc2)C4)s1 [Compound 11u, 1-(4-chlorophenyl)-3-(5-((7-(pyridin-4-ylmethyl)-5,6,7,8-tetrahydropyrido[4',3':4,5]thieno[2,3-d]pyrimidin-4-yl)thio)-1,3,4-thiadiazol-2-yl)urea]",2.08 ± 0.01 µM,~30 folds,
